Assay results reported in patent US12478617B2, “Lipidated peptide inhibitors of interleukin-23 receptor” (JANSSEN BIOTECH, INC., priority 2021, dated 2025).
Starred links: 1 amine or outer side, 2 acyl side, 3 side chain; linkers in the order of their positions; H or OH if unused. Positions of bridges follow the written chain, without caps; N, C: chain ends. Non-standard residues stand in square brackets, D forms with d. Residues, ends and D or L forms follow the SMILES beside them. Groups on a side chain read outwards from the residue. *: point of attachment. Trp(7-Me) = Cc1cccc2c(C[C@H](N)C(=O)O)c[nH]c12; d(γGlu) = O=C(O)[C@@H](CCC(=O)[*:2])N[*:1]; C18 diacid = O=C(O)CCCCCCCCCCCCCCCCC(=O)*; C16 diacid = O=C(O)CCCCCCCCCCCCCCC(=O)*; γGlu = O=C(O)[C@H](CCC(=O)[*:2])N[*:1]; 2Nal = N[C@@H](Cc1ccc2ccccc2c1)C(=O)O; AEF = NCCOc1ccc(C[C@H](N)C(=O)O)cc1; PEG6 = NCCOCCOCCOCCOCCOCCOCCC(=O)O; Stearoyl = CCCCCCCCCCCCCCCCCC(=O)*; 3Pal = N[C@@H](Cc1cccnc1)C(=O)O; Pen = CC(C)(S)[C@H](N)C(=O)O; Thp = NC1(C(=O)O)CCOCC1; AEEA = NCCOCCOCC(=O)O; Sar = CNCC(=O)O

These compounds were tested against T1, IL-23R (Homo sapiens, UniProt Q5VWK5) (assay: IL23R Reporter Assay).
T1 construct: HEK293 cells containing IL-23R, IL-12RP31 and a firefly luciferase reporter gene driven by a STAT-inducible promoter (Promega); host or cells: HEK293
T1 sequence (Q5VWK5 24-629): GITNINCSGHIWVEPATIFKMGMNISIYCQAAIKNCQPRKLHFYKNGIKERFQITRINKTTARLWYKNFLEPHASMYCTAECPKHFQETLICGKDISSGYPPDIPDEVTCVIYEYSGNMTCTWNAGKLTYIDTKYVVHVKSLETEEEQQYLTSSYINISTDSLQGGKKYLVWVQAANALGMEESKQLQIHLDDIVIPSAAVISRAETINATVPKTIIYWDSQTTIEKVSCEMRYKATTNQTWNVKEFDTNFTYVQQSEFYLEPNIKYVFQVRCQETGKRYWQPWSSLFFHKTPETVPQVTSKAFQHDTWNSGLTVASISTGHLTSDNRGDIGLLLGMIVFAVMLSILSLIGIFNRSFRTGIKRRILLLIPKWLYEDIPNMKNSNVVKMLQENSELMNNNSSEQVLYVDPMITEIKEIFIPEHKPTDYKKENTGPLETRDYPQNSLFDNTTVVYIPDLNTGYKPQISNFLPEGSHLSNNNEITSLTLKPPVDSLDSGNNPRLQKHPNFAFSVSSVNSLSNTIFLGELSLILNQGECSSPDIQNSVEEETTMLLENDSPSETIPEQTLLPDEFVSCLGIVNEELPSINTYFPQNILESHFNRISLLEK
Assay type: cell-based
Text: IL-23 binding to IL-23 receptors results in the activation of the Signal Transducer and Activator of Transcription 3 (STAT3) by phosphorylation and downstream signaling events. Accordingly. the ability of the inhibitors described herein to block IL-23 action can be assessed by monitoring the status of STAT3 activation in response to IL-23. This may be accomplished in reporter cell assays or in intact cells such as peripheral blood mononuclear cells (PBMCs).
Compounds were serially diluted in 100% (v/v) DMSO) and plated using an Echo acoustic dispenser (Labcyte) into 1536-well non-treated black assay plates (Corning #9146). […] After 5 h at 37° C., 5% CO2, 95% relative humidity, cells were placed at 20° C. and treated with BioGlo reagent (Promega) according to the Manufacturer's instructions. Luminescence was measured on a Pherastar FSX (BMG LabTech).

Compound | IC50
CC(=O)NCCCC[C@@H]1NC(=O)[C@H](Cc2c[nH]c3c(C)cccc23)NC(=O)[C@H]([C@@H](C)O)NC(=O)[C@H](CC(N)=O)NC(=O)[C@@H](NC(C)=O)C(C)(C)SSC(C)(C)[C@@H](C(=O)N[C@@H](Cc2ccc(OCCN)cc2)C(=O)N[C@@H](Cc2ccc3ccccc3c2)C(=O)NC2(C(=O)N[C@@H](CCCCNC(=O)COCCOCCNC(=O)CCOCCOCCOCCOCCOCCOCCNC(=O)CC[C@H](NC(=O)CCCCCCCCCCCCCCCCC(=O)O)C(=O)O)C(=O)N[C@@H](CC(N)=O)C(=O)N[C@@H](Cc3cccnc3)C(=O)N(C)CC(N)=O)CCOCC2)NC1=O [Example 39, MeCO-Pen*-N-T-7MeW-K(Ac)-Pen*-AEF-2Nal-THP-K(PEG2PEG6gEC18OH)-N-3Pya-Sar-CONH2] (Ac-[Pen]NT[Trp(7-Me)]K(Ac)[Pen][AEF][2Nal][Thp]K([AEEA-PEG6-γGlu-C18 diacid])N[3Pal][Sar]-NH2; disulfide 1-6) | 0.048 nM
CCCCCCCCCCCCCCCCCC(=O)N[C@@H](CCC(=O)NCCCC[C@@H](NC(C)=O)C(=O)N[C@@H]1C(=O)N[C@@H](CC(N)=O)C(=O)N[C@@H]([C@@H](C)O)C(=O)N[C@@H](Cc2c[nH]c3c(C)cccc23)C(=O)N[C@@H](CCCCNC(C)=O)C(=O)N[C@H](C(=O)N[C@@H](Cc2ccc(OCCN)cc2)C(=O)N[C@@H](Cc2ccc3ccccc3c2)C(=O)NC2(C(=O)N[C@@H](CCCCNC(C)=O)C(=O)N[C@@H](CC(N)=O)C(=O)N[C@@H](Cc3cccnc3)C(=O)N(C)CC(N)=O)CCOCC2)C(C)(C)SSC1(C)C)C(=O)O [Example 68, MeCO-k(gEC18)-Pen*-N-T-7MeW-K(Ac)-Pen*-AEF-2Nal-THP-K(Ac)-N-3Pya-Sar-CONH2] (Ac-[dK]([γGlu-Stearoyl])[Pen]NT[Trp(7-Me)]K(Ac)[Pen][AEF][2Nal][Thp]K(Ac)N[3Pal][Sar]-NH2; disulfide 2-7) | 0.037 nM
CC(=O)NCCCC[C@@H]1NC(=O)[C@H](Cc2c[nH]c3c(C)cccc23)NC(=O)[C@H]([C@@H](C)O)NC(=O)[C@H](CC(N)=O)NC(=O)[C@@H](NC(=O)[C@@H](CCCNC(=N)N)NC(C)=O)C(C)(C)SSC(C)(C)[C@@H](C(=O)N[C@@H](Cc2ccc(OCCN)cc2)C(=O)N[C@@H](Cc2ccc3ccccc3c2)C(=O)NC2(C(=O)N[C@@H](CCCCNC(=O)COCCOCCNC(=O)COCCOCCNC(=O)CC[C@@H](NC(=O)CCCCCCCCCCCCCCCCC(=O)O)C(=O)O)C(=O)N[C@@H](CC(N)=O)C(=O)N[C@@H](Cc3cccnc3)C(=O)N(C)CC(N)=O)CCOCC2)NC1=O [Example 55, MeCO-r-Pen*-N-T-7MeW-K(Ac)-Pen*-AEF-2Nal-THP-K(PEG2PEG2DgEC18OH)-N-3Pya-Sar-CONH2] (Ac-[dR][Pen]NT[Trp(7-Me)]K(Ac)[Pen][AEF][2Nal][Thp]K([AEEA-AEEA-d(γGlu)-C18 diacid])N[3Pal][Sar]-NH2; disulfide 2-7) | 0.13 nM
CC(=O)NCCCC[C@@H]1NC(=O)[C@H](Cc2c[nH]c3c(C)cccc23)NC(=O)[C@H]([C@@H](C)O)NC(=O)[C@H](CC(N)=O)NC(=O)[C@@H](NC(C)=O)C(C)(C)SSC(C)(C)[C@@H](C(=O)N[C@@H](Cc2ccc(OCCN)cc2)C(=O)N[C@@H](Cc2ccc3ccccc3c2)C(=O)NC2(C(=O)N[C@@H](CCCCNC(=O)COCCOCCNC(=O)COCCOCCNC(=O)CC[C@H](NC(=O)CCCCCCCCCCCCCCC(=O)O)C(=O)O)C(=O)N[C@@H](CC(N)=O)C(=O)N[C@@H](Cc3cccnc3)C(=O)N(C)CC(N)=O)CCOCC2)NC1=O [Example 19, MeCO-Pen*-N-T-7MeW-K(Ac)-Pen*-AEF-2Nal-THP-K(PEG2PEG2gEC16OH)-N-3Pya-Sar-CONH2] (Ac-[Pen]NT[Trp(7-Me)]K(Ac)[Pen][AEF][2Nal][Thp]K([AEEA-AEEA-γGlu-C16 diacid])N[3Pal][Sar]-NH2; disulfide 1-6) | 0.037 nM
